From paper PMC12841663, “Antiprotozoal Potential of Cultivated Geranium macrorrhizum Against Giardia duodenalis, Trichomonas gallinae and Leishmania infantum” (International Journal of Molecular Sciences, 2026)
“Also recorded” adds a separate entry of the source.

Tests used:
[1] = system: L. infantum promastigotes; assay: Morphological evaluation by light microscopy (Diff-Quik), L. infantum; assay type: cell-based, Leishmania infantum; settings: germacrone 100 µg/mL
Description: L. infantum, T. gallinae and G. duodenalis were studied at 0, and 48 h after treatment with germacrone (100 µg/mL), and controls (DMSO 1%, metronidazole at 10 µg/mL for T. gallinae and G. duodenalis and amphotericin B at 1 µg/mL for L. infantum).
For L. infantum and T. gallinae, cultures in the exponential growth phase (10^7 promastigotes/mL and 5 × 10^5 trophozoites/mL, respectively) were treated in 96-well microplates. At each time point, quadruplicates were assigned per condition: growth control, germacrone, and the corresponding positive control (metronidazole or amphotericin B). For microscopy, quadruplicate wells corresponding to the same condition/time point were pooled prior to centrifugation to obtain sufficient biomass and a representative pellet for smear preparation. Pooled samples per condition/time point were centrifuged, resuspended in FBS and spread onto microscope slides. Once dried, samples were fixed and stained with Diff-Quik (Medion Diagnostic AG, Düdingen, Switzerland) following the manufacturer’s instructions. Additionally, three wells per condition (triplicates) were used for the MTT assay, with absorbance measured by spectrophotometry after 48 h.
Morphological changes were analyzed using light microscopy. Experiments were performed as independent biological replicates on different plates, and one Diff-Quik stained smear was obtained per condition and time point per biological replicate. For morphometric analysis, a total of 30 trophozoites per condition and time point were measured across the independent biological replicates and were selected by consecutive sampling during a predefined serpentine (zig-zag) scan across the preparation. Up to two eligible trophozoites per field (intact, well-focused and non-overlapping) were measured in sequential fields until n = 30 was reached, avoiding subjective selection of “representative” cells. Overlapping, partially visible, out-of-focus, edge-of-field, or debris-obscured trophozoites were excluded a priori. Trophozoites were photographed using a researcher’s mobile phone mounted to the microscope ocular. Calibration was performed at the same magnification using a stage micrometre and applied in ImageJ v. 1.54d. One Diff-Quik stained smear was obtained per condition/time point per biological replicate Cell length, cell width, cell surface, nuclear length, nuclear width, axoneme (only Giardia), and length of axostyle (only T. gallinae) were measured with ImageJ software, and the data were recorded in an Excel database for statistical analysis.
The Shapiro–Wilk test was used to assess the normality of the morphological variables. When data followed a normal distribution, Student’s t-test was applied; otherwise, non-parametric tests, such as the Mann–Whitney U test, was used. Values of p < 0.05 were considered significant. For the morphological analysis, the mean, standard deviation, median, and interquartile range were calculated using SPSS version 20 (IBM Corp., Armonk, NY, USA).

[2] = system: T. gallinae trophozoites; assay: Morphological evaluation by light microscopy (Diff-Quik), T. gallinae; assay type: cell-based, Trichomonas gallinae; settings: germacrone 100 µg/mL
Source text: At each time point, quadruplicates were assigned per condition: growth control, germacrone, and the corresponding positive control (metronidazole or amphotericin B). For microscopy, quadruplicate wells corresponding to the same condition/time point were pooled prior to centrifugation to obtain sufficient biomass and a representative pellet for smear preparation. Pooled samples per condition/time point were centrifuged, resuspended in FBS and spread onto microscope slides. Once dried, samples were fixed and stained with Diff-Quik (Medion Diagnostic AG, […], Switzerland) following the manufacturer's instructions. Additionally, three wells per condition (triplicates) were used for the MTT assay, with absorbance measured by spectrophotometry after 48 h. Morphological changes were analyzed using light microscopy. Experiments were performed as independent biological replicates on different plates, and one Diff-Quik stained smear was obtained per condition and time point per biological replicate. For morphometric analysis, a total of 30 trophozoites per condition and time point were measured across the independent biological replicates and were selected by consecutive sampling during a predefined serpentine (zig-zag) scan across the preparation. Up to two eligible trophozoites per field (intact, well-focused and non-overlapping) were measured in sequential fields until n = 30 was reached, avoiding subjective selection of “representative” cells. Overlapping, partially visible, out-of-focus, edge-of-field, or debris-obscured trophozoites were excluded a priori. Trophozoites were photographed using a researcher's mobile phone mounted to the microscope ocular. Calibration was performed at the same magnification using a stage micrometre and applied in ImageJ v. 1.54d. One Diff-Quik stained smear was obtained per condition/time point per biological replicate Cell length, cell width, cell surface, nuclear length, nuclear width, axoneme (only Giardia), and length of axostyle (only T. gallinae) were measured with ImageJ software, and the data were recorded in an Excel database for statistical analysis. The Shapiro-Wilk test was used to assess the normality of the morphological variables. When data followed a normal distribution, Student's t-test was applied; otherwise, non-parametric tests, such as the Mann-Whitney U test, was used. Values of p < 0.05 were considered significant. For the morphological analysis, the mean, standard deviation, median, and interquartile range were calculated using SPSS version 20 (IBM Corp., Armonk, NY, USA).

[3] = metronidazole 10 µg/mL, 0.5 and 48 h, control DMSO 1%

CC(C)=C1C/C=C(\C)CC/C=C(\C)CC1=O [Compound 2, germacrone]
cell length vs control ([1]; 0.5 and 48 h, control DMSO 1%): initial increase at 0.5 h but subsequently decreased at 48 h
cell surface area vs control ([1]; 0.5 and 48 h, control DMSO 1%): transiently increased at 0.5 h with no significant changes detected at 48 h
cell width vs control ([1]; 0.5 and 48 h, control DMSO 1%): increased significantly at both 0.5 and 48 h
morphological changes (light microscopy) ([1]; 48 h of exposure, Diff-Quik): less pronounced
axostyle length vs control [2, 3]: decreased at 0.5 h; also recorded: after 48 h, it increased
cell length vs control [2, 3]: increase after 48 h
cell surface area vs control [2, 3]: decreased transiently at 0.5 h but increased at 48 h
cell width vs control [2, 3]: significant decrease exclusively in germacrone-treated parasites compared to the control at 0.5 h
nuclear length vs control [2, 3]: increased upon germacrone exposure
nuclear width vs control [2, 3]: diminished at 0.5 h; also recorded: By 48 h, nuclear width increased
morphological changes (light microscopy) ([2]; 48 h of exposure, Diff-Quik): elongation of the cytoplasm and the nucleus
